Experimental data taken from US8481592B2, “Uses of sesquiterpene derivatives” (Kwang Dong Pharm Co., Ltd., priority 2008, dated 2013).
Marks after values point to notes of the source that are not given here.

What was measured:
[1] = Body weight gain and total visceral fat weight in mice fed high fat diet containing sesquiterpene compound; type: in vivo, mouse; conditions: HFD with 0.2% compound in diet, C57BL mice, 8 weeks; for total visceral fat weight: epididymal, perirenal, mesenteric and abdominal fat
Excerpt: Obesity-inducible diet used in the present experiment was high fat diet (HFD: 40% fat calorie, 17 g Lard+3% maize oil/100 g diet) developed by the present inventors and the composition of diet containing sesquiterpene compounds was equal to that of HFD but each 8 sesquiterpene compounds with a concentration of 0.2% was included in diet [cedryl acetate-containing diet, (−)-α-cedrene-containing diet, (+)-β-cedrene-containing diet, cedrene epoxide-containing diet, methyl cedryl ether-containing diet, methyl cedryl ketone-containing diet, cedrenol-containing diet and (+)-cedrol-containing diet]. The composition of diet is described in the following Table 5.
6-old-week C57BL/63 male mice were adapted to laboratory environment during one week and divided into HFD control and 8 test groups according to randommized block design. […] Diet was supplied with water at 10-11 o'clock every morning, and intake amount of diet and body weight was measured every day and once of three days, respectively. The body weight was measure at 2 hrs after removing feed bin to block sudden change of body weight according to feed intake, and feed efficiency was calculated by dividing body weight gain by amount of total intake amount of diet during total experimental period which is from initial day supplying experimental diet to sacrificed day. After experimental animals were fasted for above 12 hrs, they were anesthetized with diethylether, and their blood, liver and visceral fat tissues (epididymal fat, perirenal fat, mesenteric fat and abdominal fat) were collected. And then, they were washed with 0.1 M phosphate-buffered saline (pH 7.4), and their weights were measured. Blood taken from abdominal aorta was centrifuged at 1,000×g for 15 min to separate plasma.

[2] = Physical characteristics of the compounds (solubility, stability); conditions: easily dissolved in organic solvent having lower polarity than ethanol, but not water
[3] = Biochemical index of blood and liver tissue in mice fed high fat diet containing sesquiterpene compound; type: in vivo, mouse; conditions: for Liver Triglyceride / IRI (insulin resistance index) / Plasma Glucose / Plasma Insulin / Plasma Total cholesterol / Plasma Triglyceride: HFD with compound in diet, 8 weeks; for IRI (insulin resistance index) / Plasma Glucose / Plasma Insulin / Plasma Total cholesterol / Plasma Triglyceride: fasted
Method: The composition of diet is described in the following Table 5. […] After experimental animals were fasted for above 12 hrs, they were anesthetized with diethylether, and their blood, liver and visceral fat tissues (epididymal fat, perirenal fat, mesenteric fat and abdominal fat) were collected. And then, they were washed with 0.1 M phosphate-buffered saline (pH 7.4), and their weights were measured. […] Concentration of total Plasma cholesterol, triglyceride and glucose was measured twice according to commercially available measurement kit (Bio Clinical system), respectively. Insulin concentration was measured by ELISA using mouse insulin kit (Shibayaki, Japan). […] The homogenate was mixed with 5 ml of chloroform:methanol solution (2:1, v/v), and centrifuged at 1,000×g for 10 min to separate lower phase. […] Three ml of chloroform:methanol:0.05% CaCl2 solution (3:48:47, v/v/v) were added to the resulting lower phase, and thoroughly mixed for 1 min. The mixture was centrifuged at 1,000×g for 10 min. The final lower phase was completely dried on nitrogen gas, and the dried lipid was dissolved in 1 ml of methanol to use analysis of lipid component. Triglyceride concentration in lipid extracts from liver tissues was measured according to commercially available measurement kit (Bio Clinical system) equal to that used in analysis of plasma.

C. elegans = assay: Anti-obesity effect (fat content by Nile red staining) in C. elegans; type: in vivo, Caenorhabditis elegans; parameters: key to Fat content: A low fat content was indicated by +1; a high fat content was assigned with +4; conditions: for Fat content: Nile red staining; for inhibitory effect on adipogenesis: low concentration of 1 μg/ml
Method: Using a dissecting microscope (×50 magnification), C. elegans at the 4th stage (L4, the imaginal stage) was transferred to 3 ml of a cholesterol-supplemented S-medium (containing NaCl, K2HPO4, KH2PO4, cholesterol, citrate, trace metals, CaCl2 and MgSO4), and 100 μl of E. coli OP50 (OD600=0.2) liquid-cultured overnight before 1 day of experiment was added thereto. The Pterocarpus indicus fraction sample was added to the liquid media containing C. elegans, followed by rotary culture in a dark room at 16° C. and 100 rpm. The water-insoluble sample was dissolved in DMSO and added to the culture media. The final concentration of DMSO was adjusted below 1%. […] 24 hours after the sample was added to C. elegans, 30 μl of a Nile red dye at a concentration of 10 μg/ml was added (final concentration of Nile red was adjusted to 100 ng/ml) to the media, followed by continuous rotary culture for 2 days.
In order to arrest the locomotory movement of C. elegan, 20 μl of 0.3% NaN3 was dropped on a slide glass to which 100 μl of C. elegans cultured in the presence of Nile red for 2 days was added. Under a fluorescence microscope, adipocytes of C. elegans emitting red fluorescence in a dark room were micrographed and compared with the control group to thereby determine the amount of fat. A low fat content was indicated by +1, whereas a high fat content was assigned with +4. Adult (L4 stage) C. elegans immediately prior to egg-laying were used in this Example. Therefore, the eggs were hatched after sample treatment and most of adult C. elegans were killed at 3 day post-treatment. A fat content was examined in C. elegans which had newly hatched and grown.

Row | SMILES | Body weight gain [1] [g/8 weeks] | total visceral fat weight [1] [mg/g body weight] | Solubility [2] | blood insulin concentration reduced compared to HFD ([3]; 8-week) [%] | fasting glucose reduced compared to HFD ([3]; 8-week) [%] | insulin resistance index reduced compared to HFD ([3]; 8-week) [%] | Liver Triglyceride [3] [µmol/g] | IRI (insulin resistance index) [3] | Plasma Glucose [3] [mmol/L] | Plasma Insulin [3] [ng/mL] | Plasma Total cholesterol [3] [mmol/L] | Plasma Triglyceride [3] [mmol/L] | Plasma triglyceride concentration reduced compared to HFD ([3]; plasma, 8-week) [%] | Fat content (C. elegans; sample concentration 1 μg/ml) | Fat content (C. elegans; sample concentration 10 μg/ml) | Fat content (C. elegans; sample concentration 100 μg/ml) | triglyceride concentration of liver tissue reduced compared to HFD ([3]; liver tissue, 8-week) [%] | inhibitory effect on adipogenesis (C. elegans) | total cholesterol concentration reduced compared to HFD ([3]; plasma, 8-week) [%]
1 | CC(=O)O[C@]1(C)CC[C@@]23C[C@@H]1C(C)(C)[C@@H]2CC[C@H]3C [Cedryl acetate, cedryl acetate] | 8.54 ± 0.84 | 46.4 ± 3.12 | Fat soluble | 49 | 54 | 73 | 23.8 ± 2.33 | 0.44 ± 0.06* 10^−3 pmol insulin × mmol glucose × L^−2 | 4.67 ± 0.40 | 0.49 ± 0.07 | 2.53 ± 0.10 | 1.12 ± 0.06 | 30 | +4 | +3 | +2 |  |  | 
2 | CC1=CC[C@@]23C[C@@H]1C(C)(C)C2CC[C@H]3C (stereo partly drawn) [(−)-α-cedrene] | 6.73 ± 1.02 | 40.0 ± 4.31 | Fat soluble |  |  |  | 16.1 ± 0.60 | 0.75 ± 0.13* 10^−3 pmol insulin × mmol glucose × L^−2 | 6.41 ± 0.57 | 0.67 ± 0.04 | 2.11 ± 0.16 | 0.81 ± 0.15 | 50 | +2 | +2 | +2 | 64 | notably inhibitory effect on adipogenesis | 
3 | CO[C@]1(C)CC[C@@]23C[C@@H]1C(C)(C)[C@@H]2CC[C@H]3C [methyl cedryl ether, Methyl cedryl ether] | 9.31 ± 0.91 | 50.8 ± 6.12 | Fat soluble |  |  |  | 24.4 ± 1.37 | 0.61 ± 0.08* 10^−3 pmol insulin × mmol glucose × L^−2 | 5.61 ± 0.53 | 0.67 ± 0.07 | 2.01 ± 0.24 | 1.29 ± 0.13 |  | +1 | +2 | +2 |  | notably inhibitory effect on adipogenesis | 46
